Source: patent US7544700B2, “Pharmaceutically active sulfonamide derivatives bearing both lipophilic and ionisable moieties as inhibitors of protein JunKinases” (Laboratoires Serono SA, priority 2000, dated 2009)

Key:
JNK1 = JNK1 (Homo sapiens, UniProt P45983); assay: JNK1 inhibition; assay type: biochemical; conditions: read-out: inhibition (IC50) with regard to JNK1
[1] = system: Hela luciferase reporter-c-Jun (HLR-c-Jun) cell lines; assay: C-Jun reporter assay; assay type: cell-based; conditions: Homo sapiens, MEKK-1 transfected HLR-c-Jun cells
Excerpt: The phosphorylation of the transcriptional factor, c-jun, by JNK in the MAP kinase signal transduction pathway can be followed via a trans-reporting system such as the commercially available PathDetect® (32).
A trans-reporting system allows one to follow, via Luciferase activity, the activation status of a fusion trans-activator protein. The trans-activator protein consists of the activation domain of the transcriptional factor of interest (c-jun) fused with a yeast transcriptional activator, GAL4 DNA binding domain (dbd). The GAL4 dbd has the advantage that no known mammalian transcriptional factors can bind to it and therefore the background noise of the assay is very low.
In the present case, Hela luciferase reporter-c-Jun (HLR-c-Jun) cell lines which constitutively express GAL4-cJun were used.
The MEKK-1 gene was inserted. MEKK-1 is a MAPKKK which triggers the activation of JNK. Expression of wild type MEKK-1 is sufficient for JNK activation (33).
Once, JNK is activated it can induce the phosphorylation of the c-jun domain of the fusion trans-activator protein (GAL4dbd-cJun) which forms a dimer. The dimer is then is able to bind to a GAL4 upstream activating sequence (GAL4 UAS) of the reporter which activates Luciferase expression.
Luciferase expression is detected by luminescence using a simple assay such as Dual-Luciferase® Reporter Assay System (34) in which Renilla is used as a “control reporter”.
Inhibition of JNK is observed as a decrease in Luciferase expression and detected by a decrease in luminescence.
HLR-c-Jun cells are cultured in DMEM High Glc supplemented with 10% FCS (Sigma), 2 mM Glutamine (Gibco), P/S, Hygromycin b 100 μg/mL and G418 250 μg/mL.
The cell suspensions are diluted with medium to give about 3.5×10^6 cells/mL and […] of cell suspension are put onto 2 10 cm culture dishes containing 9 mL of culture medium.
Transfections • Control: 0.2 μg pTK Renilla, 5.8 μg pBluescript KS, 500 μl OPTIMEM (GOBCO), 18 μl Fugene 6. • Induced: 0.1 μg pMEKK1, 0.2 μg pTK Renilla, 5.7 μg pBluescript KS, 500 μl OPTIEM (GIBCO), 18 μl Fugene 6 30′ RT.
The transfection mixture is added to the plated cells. The plates are incubated over night at 37° C. in a humidified atmosphere of 5% CO2 in air.
A 96 wells plate (100 μl of culture medium per well) is prepared. Negative control (vehicle): 2 μl of DMSO is added to the 100 μl (in triplicate). […]
The medium is removed from the plate and the cells are washed two times with 100 μl PBS. […] The luminometer reading is recorded.
−50 μl of Luciferase Assay Reagent II are injected and readings are recorded at 5 and 10 minutes.
50 μl of Stop & Glo® Reagent are injected and readings are recorded at 5 and 10 minutes.
The relative luminescence is then measured: RLU Luciferase/RLU Renilla.

JNK1, sequence (P45983 whole entry, species assumed): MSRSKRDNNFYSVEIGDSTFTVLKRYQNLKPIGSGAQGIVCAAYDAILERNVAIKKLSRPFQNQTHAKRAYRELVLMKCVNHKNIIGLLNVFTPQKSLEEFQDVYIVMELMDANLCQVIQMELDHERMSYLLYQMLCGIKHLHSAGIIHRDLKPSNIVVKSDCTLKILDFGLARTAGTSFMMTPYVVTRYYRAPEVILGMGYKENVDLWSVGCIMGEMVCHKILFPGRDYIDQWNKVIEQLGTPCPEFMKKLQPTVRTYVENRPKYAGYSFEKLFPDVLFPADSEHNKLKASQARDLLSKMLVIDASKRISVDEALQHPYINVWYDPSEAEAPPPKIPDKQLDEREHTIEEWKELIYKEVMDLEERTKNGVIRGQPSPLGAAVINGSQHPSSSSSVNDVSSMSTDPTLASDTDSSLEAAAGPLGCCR

IC50 (JNK1): 100 to 700 nM
IC50 [1]: < 700 nM
SMILES: COc1cccc(C(=O)NCc2ccc(S(=O)(=O)N3CCC(NCc4ccc(C(F)(F)F)cc4)CC3)s2)c1 [Example 1, 3-Methoxy-N-{[5-({4-[(4-trifluoromethylbenzyl)amino]piperidin-1-yl}sulfonyl)thien-2-yl]methyl}benzamide]
